Results from patent US10071097B2, “Molecular targets for the treatment of wounds, in particular chronic wounds” (URGO RECHERCHE INNOVATION ET DEVELOPPEMENT, priority 2013, dated 2018).

How the values were obtained:
Type in all cases: cell-based
[1] = system: Normal Human Dermal Fibroblast (NHDF); assay: ex vivo model of chronic wounds: NHDF differentiation in presence of chronic wound exudate; conditions: TGFβ, exudate and Am580 versus same condition without Am580
Protocol: (§1) NHDF, isolated from human explants, were purchased from Promocell. NHDF were cultivated in DMEM-F12 (Invitrogen), supplemented with 10% FCS (Invitrogen, 5 μg/mL of insulin and 1 ng/mL of b-FGF (PromoKine)).
To collect exudates, two patients with mixed ulcers were recruited. For patient selection, it was decided to exclude any other comorbidity factor potentially involved in wound etiology: diabetes, peripheral arterial diseases, malnutrition. Exudates were collected from negative pressure therapy. All the exudates were centrifuged at 1,500×g for 3 minutes to remove cell debris. The supernatant was filtered and stored at −80° C. until use. Aliquots were used to determine protein concentration according to BCA method (Sigma).
(§2) For experiments, cells were deprived of insulin and b-FGF during 48 hours. Then, the cells were cultivated on collagen coated culture plates in DMEM-F12, supplemented with 10% FCS, 10 ng/mL of TGF-β1 (Promocell) for 4 days. Four points were tested in order to appreciate the effect of exudate on fibroblast differentiation: untreated cells (T−E−), fibroblasts treated with TGF-β1 (T+E−), cells treated with exudate (T−E+) and finally fibroblasts treated with TGF-β1 and exudate at the same time (T+E+).
For the chronic or non-healing wound model, chronic wound exudates were added to cell cultures (500 μg/mL of total proteins of exudate). […]

[2] = system: Normal Human Dermal Fibroblast (NHDF); assay: fibroblast to myofibroblast differentiation of NHDF (markers αSMA, PI16, ACTC1 by RT-qPCR, αSMA positive cells)
Protocol: as §1, §2
The efficiency of fibroblast differentiation was estimated by analyzing the expression of the myofibroblast marker alpha smooth muscle actin (αSMA).
(§3) After four days of experiment, treated fibroblasts were lysed with TRIzol Reagent (Invitrogen) and stored at −80° C. Then RNA was purified using chloroform and precipitated by isopropanol. Total RNA was quantified on the NanoDrop 2000c Spectrophotometer (Thermo Scientific). Reverse transcription of 500 ng total RNA to cDNA was done with oligot dT (Invitrogen) using SuperScript III RT (Invitrogen) and RNAse OUT (Invitrogen). The cDNA was store at −20° C.
(§4) Quantitative real-time PCR (RT-qPCR) was done using 5 μL of 1:20 diluted cDNA on the LightCycler480 system (Roche) using Maxima SYBR Green qPCR Master Mix (Fermentas). Forward and reverse primers for αSMA were designed by Eurofins (MWG, αSMA forward: […] (SEQ ID NO:9), αSMA reverse: […] (SEQ ID NO:10)) and a 100 μM stock was stored at −20° C. Forward and reverse primer pairs were used for each RT-qPCR reaction. The cycling conditions were as follows: an initial 95° C. for 10 minutes, followed by 45 cycles of 95° C. for 15 sec, 58° C. for 30 sec, 72° C. for 20 sec. LightCycler 480 SW 1.5 was used to evaluate the TM curves, to determine the Cp and to approximate the relative concentration for each amplification reaction.
Cells grown in collagen coated culture dishes, and treated as previously described, were fixed with 4% paraformaldehyde (PFA) in PBS for 15 minutes and permeabilized with 2.5% Triton X-100 (Euromedex, 2000-B) in PBS for 3 minutes. After saturation with 5% BSA in PBS, cells were stained for α-SMA (Abcam, ab5694) and for DNA (DAPI). As secondary antibody, CyTM3 conjugated anti rabbit (GE Healthcare, PA43004) was used. […] To estimate the percentage of fibroblast differentiation due to the different treatments, the total number of cells per field was determined by the DAPI, and myofibroblasts, differentiated fibroblasts, were counted using the α-SMA staining. […]

[3] = system: Normal Human Dermal Fibroblast (NHDF); assay: transcription factor mRNA levels in treated NHDF by RT-qPCR; conditions: Gant 61
Protocol: FIG. 6: Graphic representation of the TCF4 (a), EGR2 (b), SOX9 (c), STAT4 (d), FOXS1 (e), PPARG (f), MAF (g), MEOX2 (h), and SIX2 (i) mRNA levels after NHDF (donor A) treatment for 48 h (light grey) or 72 h (dark grey) either with mock siRNA or siRNA directed against different TF mRNA (SOX9, EGR2, TCF4, or FOXS1) and concomitantly treated with TGF-β. For all graphs, the mock siRNA treated with TGF-β (T+E) condition was set to 100% for each time of treatment (48 h and 72 h).
FIG. 10: Graphic representation of the αSMA, GLI1, SOX9 and MAF mRNA levels assessed by RT-qPCR of NHDFs treated by Gant 61.
as §3, §4

Row | SMILES | PI16 mRNA [1] | αSMA mRNA [1] | differentiation followed with αSMA mRNA ([2]; Am580 5 nM in presence of TGFβ) | differentiation followed with ACTC1 mRNA ([2]; Am580 in presence of TGFβ) | differentiation followed with PI16 mRNA ([2]; Am580 in presence of TGFβ) | MAF mRNA [3] | SOX9 mRNA [3] | expression of GLI1 (mRNA) [3] | differentiation shown by α-SMA mRNA ([2]; Gant 61 4 μM)
1 | CC1(C)CCC(C)(C)c2cc(C(=O)Nc3ccc(C(=O)O)cc3)ccc21 [Am580, 4-[(5,6,7,8-Tetrahydro-5,5,8,8-tetramethyl-2-naphthalenyl)carboxamido]benzoic acid] | increase | increase | increase differentiation | increase differentiation | increase differentiation |  |  |  | 
2 | CN(C)c1ccccc1CN1CCCN(Cc2ccccc2N(C)C)C1c1ccncc1 [Gant 61] |  |  |  |  |  | decrease | increase | upregulate | upregulation
